Results on 4 molecules are retold here after paper PMC3759264 (The Journal of organic chemistry, 2013).

The test system of test [1] is M. tuberculosis H37Rv. Kind of test: M. tuberculosis H37Rv MIC assay. In kind it is cell-based, Mycobacterium tuberculosis. Particulars: Mtb H37Rv; for MIC50 –Fe: iron-deficient; for MIC50 +Fe: iron-replete.
Test [2] has as its target T1, MbtA (Mycobacterium tuberculosis, UniProt P71716). In kind it is biochemical. As to conditions: read-out: Ki^app MbtA; 250 µM salicylic acid, 10 mM ATP, 1 mM PPi, 7 nM MbtA.
The target in test [3] is T1, MbtA. In kind it is binding.

Bounds are passed on as bounds.

T1 sequence (P71716 whole entry): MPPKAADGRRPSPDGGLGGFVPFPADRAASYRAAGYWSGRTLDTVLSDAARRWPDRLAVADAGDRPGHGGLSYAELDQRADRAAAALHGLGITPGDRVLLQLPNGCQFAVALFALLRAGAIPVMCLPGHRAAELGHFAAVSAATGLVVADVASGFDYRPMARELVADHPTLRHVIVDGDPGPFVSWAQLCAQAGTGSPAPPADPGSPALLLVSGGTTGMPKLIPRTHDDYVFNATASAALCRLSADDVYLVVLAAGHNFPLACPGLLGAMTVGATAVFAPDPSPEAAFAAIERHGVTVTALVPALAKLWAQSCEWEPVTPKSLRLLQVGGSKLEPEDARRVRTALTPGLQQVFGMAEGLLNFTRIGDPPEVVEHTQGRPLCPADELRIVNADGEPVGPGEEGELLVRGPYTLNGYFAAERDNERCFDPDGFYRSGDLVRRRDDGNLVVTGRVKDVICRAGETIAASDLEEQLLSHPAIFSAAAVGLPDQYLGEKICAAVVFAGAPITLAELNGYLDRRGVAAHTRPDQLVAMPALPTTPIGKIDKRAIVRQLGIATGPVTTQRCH

Turning to `Nc1ncnc2c1ncn2[C@@H]1O[C@H](CNS(=O)(=O)c2coc3ccccc3c2=O)[C@@H](O)[C@H]1O` [Compound 1, 5′-Amino-5′-N-[(chromon-3-yl)sulfonyl]-5′-deoxy-adenosine], in test [1], the “MIC50 –Fe” value is reported as over 50 µM and the “MIC50 +Fe” value was over 50 µM.

Regarding `Nc1ncnc2c1ncn2[C@@H]1O[C@H](CNS(=O)(=O)c2c[nH]c3ccccc3c2=O)[C@@H](O)[C@H]1O` [Compound 2, 5′-Amino-5′-deoxy-5′-N-[(quinol-4-on-3-yl)sulfonyl]adenosine], in test [1], the “MIC50 –Fe” value was over 50 µM and the “MIC50 +Fe” value is over 50 µM. In addition, in test [2], the Ki came to 120 ± 20 nM.

In the case of `Nc1ncnc2c1ncn2[C@@H]1O[C@H](CNS(=O)(=O)c2noc3ccccc3c2=O)[C@@H](O)[C@H]1O` [Compound 3, 5′-Amino-5′-deoxy-5′-N-[(4-oxo-4H-benzo[e][1,2]oxazin-3-yl)sulfonyl]adenosine], the “fold increase in potency (KD, MbtA) relative to chromone 1” value in test [3] is recorded as about 10 fold. Besides, in test [1], the “MIC50 –Fe” value is listed as over 50 µM and the “MIC50 +Fe” value is over 50 µM.

For the molecule `Nc1ncnc2c1ncn2[C@@H]1O[C@H](CNS(=O)(=O)c2coc3c(O)cccc3c2=O)[C@@H](O)[C@H]1O` [Compound 4, 5′-Amino-5′-deoxy-5′-N-[(8-hydroxychromon-3-yl)sulfonyl]adenosine], the “fold loss of potency (KD, MbtA) relative to chromone 1” value in test [3] (FP assay) was 80 fold. For the same molecule, in test [1], the “MIC50 –Fe” value is over 50 µM and the “MIC50 +Fe” value is given as over 50 µM.
